Reference: ChEMBL document CHEMBL1201862, “PubChem BioAssay data set” (2004)
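Each compound was tested at five concentrations against cells in 96-well plates for 48 hours. Abbreviation: GI50, concentration required for 50% inhibition of growth.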 Activity calls are given as the source filed them. Cut-off read from the data, not from the text of the source: active = GI50 up to about 1.1 µM and inactive = higher.

What was measured:
Test in all cases: NCI tumour cell line growth inhibition, 48 h
[1] = system: EKVX
[2] = system: HL-60
[3] = system: A549
[4] = system: SF-268
[5] = system: NCI-H23
[6] = system: RXF 393
[7] = system: HCC 2998
[8] = system: SK-MEL-5
[9] = system: COLO 205
[10] = system: HOP-62
[11] = system: NCI-H460
[12] = system: SR
[13] = system: RPMI-8226
[14] = system: UACC-62
[15] = system: A498
[16] = system: UO-31
[17] = system: MDA-MB-435
[18] = system: PC-3
[19] = system: KM12
[20] = system: M14

Compound	GI50 [1]	GI50 [2]	GI50 [3]	GI50 [4]	GI50 [5]	GI50 [6]	GI50 [7]	GI50 [8]	GI50 [9]	GI50 [10]	GI50 [11]	GI50 [12]	GI50 [13]	GI50 [14]	GI50 [15]	GI50 [16]	GI50 [17]	GI50 [18]	GI50 [19]	GI50 [20]
C#C[C@]1(O)CC[C@H]2[C@@H]3CCC4=C/C(=N\OCCN5CCCC5)CC[C@]4(C)[C@H]3CC[C@@]21C	12.9 µM (inactive)	5.35 µM (inactive)	15.7 µM (inactive)	13.5 µM (inactive)	12 µM (inactive)	13.5 µM (inactive)	16.6 µM (inactive)	3.67 µM (inactive)	13.7 µM (inactive)	10.9 µM (inactive)	17.7 µM (inactive)	2.96 µM (inactive)	3.34 µM (inactive)	10.4 µM (inactive)	18.7 µM (inactive)	15.7 µM (inactive)	3 µM (inactive)	6.28 µM (inactive)	5.36 µM (inactive)	9.82 µM (inactive)
CCN(CC)c1c(N(CC)CC)c(=O)c1=O	14.9 µM (inactive)	2.23 µM (inactive)	22.5 µM (inactive)	26.1 µM (inactive)	10.6 µM (inactive)	11.3 µM (inactive)	20.3 µM (inactive)	17.4 µM (inactive)	2.63 µM (inactive)	29.9 µM (inactive)	39.5 µM (inactive)	24.8 µM (inactive)	1.88 µM (inactive)	18.2 µM (inactive)	22.6 µM (inactive)	5.32 µM (inactive)	20.7 µM (inactive)	17.9 µM (inactive)	22.6 µM (inactive)	16.7 µM (inactive)
CC1(C)C=C(S(=O)(=O)c2ccccc2)Oc2ccccc2O1	23.1 µM (inactive)	20.5 µM (inactive)	41 µM (inactive)	61.1 µM (inactive)	41.3 µM (inactive)	34.8 µM (inactive)	15.7 µM (inactive)	15.4 µM (inactive)	18.8 µM (inactive)	> 100 µM (inactive)	35.2 µM (inactive)	41.9 µM (inactive)	32.9 µM (inactive)	38.4 µM (inactive)	30.8 µM (inactive)	20.7 µM (inactive)	20.5 µM (inactive)	27.9 µM (inactive)	43.6 µM (inactive)	46 µM (inactive)
CN(C)CC1CCCc2ccccc2C1=O (stereo not given)	1.85 µM (inactive)	2.66 µM (inactive)	20.3 µM (inactive)	2.21 µM (inactive)	6.41 µM (inactive)	6.55 µM (inactive)	6.31 µM (inactive)	4.4 µM (inactive)	5.14 µM (inactive)	16.6 µM (inactive)	19.6 µM (inactive)	0.271 µM (active)	0.0267 µM (active)	2.31 µM (inactive)	19.5 µM (inactive)	1.9 µM (inactive)	0.897 µM (active)	1.57 µM (inactive)	1.98 µM (inactive)	1.85 µM (inactive)
CS(=O)(=O)OC1CCN(C2(c3cccc(O)c3)CCCCC2)CC1	92.7 µM (inactive)	16.5 µM (inactive)	> 100 µM (inactive)	71.3 µM (inactive)	46.5 µM (inactive)	64.6 µM (inactive)	20.6 µM (inactive)	43.5 µM (inactive)	32.6 µM (inactive)	36.1 µM (inactive)	48.5 µM (inactive)	23.6 µM (inactive)	20.7 µM (inactive)	88.5 µM (inactive)	> 100 µM (inactive)	44.7 µM (inactive)	29.2 µM (inactive)	33.6 µM (inactive)	> 100 µM (inactive)	43 µM (inactive)
NC(Cn1ccc(=O)c(O)c1)C(=O)O (stereo not given) [MIMOSINE]	> 100 µM (inactive)	81.5 µM (inactive)	> 100 µM (inactive)	> 100 µM (inactive)	> 100 µM (inactive)	> 100 µM (inactive)	> 100 µM (inactive)	> 100 µM (inactive)	> 100 µM (inactive)	> 100 µM (inactive)	> 100 µM (inactive)	49.4 µM (inactive)	> 100 µM (inactive)	> 100 µM (inactive)	> 100 µM (inactive)	> 100 µM (inactive)	> 100 µM (inactive)	> 100 µM (inactive)	> 100 µM (inactive)	> 100 µM (inactive)
COc1cccc(C(=O)C(O)c2cccc(OC)c2OC)c1OC (stereo not given)	> 100 µM (inactive)	> 100 µM (inactive)	> 100 µM (inactive)	> 100 µM (inactive)	> 100 µM (inactive)	> 100 µM (inactive)	> 100 µM (inactive)	> 100 µM (inactive)	> 100 µM (inactive)	> 100 µM (inactive)	> 100 µM (inactive)	> 100 µM (inactive)	> 100 µM (inactive)	> 100 µM (inactive)	> 100 µM (inactive)	> 100 µM (inactive)	> 100 µM (inactive)	> 100 µM (inactive)	> 100 µM (inactive)	> 100 µM (inactive)
